Earlier results as cited in US20210236427A1, “Development of Lipid Matrix Granules with Incorporation of Polysaccharides for Effective Delivery of an Antimicrobial Essential Oil” (University of Manitoba, priority 2018, published 2021).

Test system: Brachyspira hyodysenteriae
Conditions: in vitro; Vande Maele et al., 2016

- minimum inhibitory concentration (MIC): less than 1.5 mM
SMILES: CCCCCCCCCCCC(=O)O [lauric acid]
